Values quoted from earlier work as cited in patent publication US5807979A, “Synthetic, three-dimensionally stabilized polypeptide mimics of HIV” (The Scripps Research Institute, priority 1995, dated 1998).

Key:
[1] = fraction of the activity of parent EGF; cited from earlier work
[2] = test system: malaria; details: tested in humans; cited from earlier work

| Substance | activity relative to that of the parent molecule [1] | effectiveness of vaccine in humans [2] |
| --- | --- | --- |
| active fragment of epidermal growth factor (EGF), comprising amino acids 20-31: active fragment of epidermal growth factor (EGF), comprising amino acids 20-31 (CMYIEALDKYAC; Epidermal growth factor; UniProt P01133 990-1001, looked up, fragment) | about 10^-4 | – |
| (Asn-Ala-Asn-Pro)3 | – | only partially effective |
